Measured values from US20140221656A1, “CRYSTALLINE SOLVATES OF 6-(PIPERIDIN-4-YLOXY)-2H-ISOQUINOLIN-1-ONE HYDROCHLORIDE” (SANOFI, priority 2011, published 2014).
“Also recorded” adds a separate entry of the source. Structures can show the parent of a compound that is named as a salt. One block for each compound: values may come before it.

Assays:
Assay type in all cases: physicochemical
[1] = Thermogravimetric analysis (TGA)
Experimental: On heating the dihydrate in a dry environment, a significant weight loss starts already at slightly elevated temperature and ends at about 110° C.
In this temperature range, transformation to phase 3 was observed as determined by XRPD.
The thermogravimetric analyses were performed with a METTLER TGA851e (module TGA/SDTA851e/SF1100/042). 100 μl Al crucibles sealed with lid were used. The sample changer punches a pinhole into the lid immediately before the start of the measurement. The oven cell is purged with a nitrogen gas flow of about 50 mL/min. The measurements typically start with a hold time of about 25 min at 25° C., followed by heating of the sample with a rate of 10°/min. Temperature and weight loss were checked by a calcium oxalate hydrate reference sample.

[2] = Dynamic vapor sorption (DVS) water vapor sorption and desorption isotherms; conditions: DVS 25° C.; for hygroscopicity / water content as a function of relative humidity: FIG. 13 and 14
Experimental: Moreover, the dihydrate may also be characterized by its DVS (dynamic vapor sorption) water vapor sorption and desorption isotherms measured at 25° C. as shown in FIG. 3. Before starting the sorption cycle the dihydrate probe is treated with dry nitrogen gas resulting in a transformation into phase 2 as shown by humidity resolved XRPD. […] In the sorption cycle the water content of the probe quickly increases when phase 2 is exposed to relative humidities between 1 and 20% and remains almost constant between 20 and 95%. In the desorption cycle the water content remains almost constant when the dihydrate is exposed to relative humidities between 95% and 20%. A weight loss starts below 20% relative humidity and becomes strong below 10%, especially below 5%. The change in mass at low relative humidity is completely reversible and when the humidity increases again, the rehydration proceeds rapidly with small samples. However, for bulk samples rehydration of over-dried samples can take considerably longer and rehydration may require several days. Almost identical water sorption and desorption isotherms are observed at 40° C.
With decreasing humidity the dihydrate converts back at low humidity (below about 10% r.h.) into phase 2 (cycle 1, desorption). Phase 2 then converts into the dihydrate with increasing humidity and along the same isotherm it converts back with decreasing humidity into polymorph 2 (cycle 2, see also FIG. 3)
Moisture sorption/desorption isotherms were recorded on a DVS-1 from Surface Measurement Systems. […] Typical total measurement times for both cycles are about 20-30 hours.

[3] = Humidity-controlled XRPD in a humidity chamber; conditions: for time until transformation into the dihydrate at 95% relative humidity: held at 95% r.h., hydrochloride
Experimental: When humidity-controlled XRPD was performed at 25 and 40° C., widely identical results were obtained.
Exposure to elevated humidity causes transformation to the dihydrate as determined with humidity-controlled XRPD performed at 25° C. […] Phase 1 transformed into the dihydrate after about 15 min at 95%, which in turn changed to phase 2 after about 40 min at 2% r.h.
Exposure to elevated humidity causes transformation to the dihydrate as determined by humidity-controlled XRPD at 25° C. […] As a result phase 3 transformed into the hydrate after about 30 min at 95%, which in turn changed to phase 2 after about 30 min at 2% r.h.
Exposure to elevated humidity causes transformation to the dihydrate as determined by humidity-controlled XRPD. […] As a result phase 4 transformed into the dihydrate after about 15 min at 95%, which in turn changed to phase 2 after about 20 min at 2% r.h.
(§1) All X-ray powder diffraction was performed with Stoe Stadi-P transmission diffractometers using CuKα1 radiation (Lambda is 1.54060 Angström). For room temperature powder diffraction, linear position sensitive detectors were used; while for temperature-resolved XRPD image plate position sensitive detectors (IP-PSDs) were used. Unless stated otherwise, X-ray powder diffraction was performed at room temperature. Dry samples were investigated in a flat preparation whereas suspensions were investigated in quartz glass capillaries. The measured data were evaluated and plotted with the Software WinXPOW V2.12.

[4] = Maturation experiments (slurry conversion), relative stability of polymorphs and hydrate; conditions: for relative thermodynamic stability among the phases: suspensions of phase mixtures in dry organic solvents, 0 to 40° C., hydrochloride
Experimental: By maturation experiments (slurry conversion) at the given temperature the relative stability of the polymorphs of compound (I) and the hydrate was investigated.
The following maturation experiment was performed by stirring the suspension under the specified conditions, starting from the dihydrate. The sample was investigated by XRPD in suspension, after vacuum filtration as well as after drying over night at 40° C. in vacuum (<50 mbar). The isolated material was also investigated by DSC and TGA.
(a) Maturation of 0.210 g dihydrate of compound (I) in 0.4 mL of water at 20° C. for 35 days. Similar, maturation of the dihydrate was done in water/methanol (vol/vol 1:1) and in water/ethanol (vol/vol 1:1).
The following maturation experiments were performed by stirring the suspension under the specified conditions and isolating the solid by vacuum filtration, starting from dihydrate of compound (I). The sample was investigated by XRPD in suspension, after vacuum filtration as well as after drying. The isolated material was also investigated by DSC and TGA.
(b) Maturation of 0.203 g of dihydrate of compound (I) in 1.2 mL of methanol at 20° C. for 35 days.
(c) Maturation was also done as in (b) by using ethanol, 1-propanol or 2-propanol.
(d) Maturation of […] of dihydrate of compound (I) in 2.0 mL of 2-butanol at 20° C. for 35 days.
The following maturation experiments of suspensions of phase mixtures of the dihydrate of compound (I) and phases consisting of polymorphs 1, 3 and 4 were performed at 0, 20 and 40° C. The product was isolated by vacuum filtration and analyzed after drying.
(e) Maturation of a mixture of 0.3 mg phase 1, 23.9 mg phase 3, 29.9 mg phase 4 and 27.9 mg of the dihydrate in 0.7 mL 2-propanol at 0° C. for 2 weeks.
(f) Maturation of a mixture of 0.3 mg phase 1, 27.2 mg phase 3, 18.1 mg phase 4 and 29.6 mg of the dihydrate in 2.0 mL 2-butanol at 0° C. for 2 weeks.
(g) Similar experiments as in e) and f) were done with corresponding mixtures of phase 1, phase 3, phase 4 and the dihydrate in 2-propanol and 2-butanol at 20° C. and at 40° C., respectively.

[5] = Temperature-resolved XRPD
Experimental: Based on these findings the dihydrate is stable below 90° C. and thus also at room temperature. Therefore, in comparison to the other described anhydrous polymorphs, the dihydrate is particularly suitable when a high stability is desired. It is the only one that can be stored at relative humidities between 20 and 95% in different environments below 90° C., which are usual storage conditions, without the risk of transformation into another described crystalline phase. Even if exposed to a very dry environment, a possible water loss is reversible and the missing water is gained back once the compound is back in an environment having usual humidity conditions. Therefore, the dihydrate is in particular suitable for the preparation of medicaments and pharmaceutical compositions with improved stability.
as §1, with “Dry samples were investigated in a flat preparation whereas suspensions were investigated in quartz glass capillaries.” left out

[6] = Storage under usual storage conditions (25° C./65% relative humidity)
Experimental: Moreover, the corresponding amorphous material is hygroscopic and the water content varies much stronger with the relative humidity compared to the dihydrate. This water uptake and variability in water content makes precise dosing during drug product manufacturing difficult. In contrast, the dihydrate has been proven to be stable for more than two years under usual storage conditions (no detectable decomposition at 25° C./65% relative humidity). Accordingly, the crystalline dihydrate is therefore the preferred solid form for drug product manufacturing.

[7] = Drying of the dihydrate, retention of crystal structure; conditions: dried dihydrate
Source text: In a further embodiment of the hydrate the water content is 11.4% (w/w). in a further embodiment the hydrate contains 2.0 molecules water per molecule (I). Although the hydrate phase typically contains about 10-12.5% water it can also occur with lower water content. The crystal structure of the hydrate remains even if the dihydrate is dried and the remaining water content is down to about 3%. Water uptake is reversible if humidity in the environment is raised again. The water content in the isolated product depends on the drying conditions used during work up of the hydrate after crystallisation.

[8] = Stability of the solvate outside the mother liquor; conditions: in the presence of humidity starts to transform to the hydrate
Source text: Thus, a further aspect of the present invention relates to the use of the methyl acetate solvate of compound (I) for the production of the hydrate, for example by subjecting it to conditions, such as an elevated temperature and/or humidity which facilitate the loss of methyl acetate and attracting water.

[9] = Storage at 20° C. and 75% relative humidity
Experimental: Also storage of phase 1 at 20° C. and 75% relative humidity caused complete conversion to the dihydrate within 3 weeks. The rate of conversion correlates with the relative humidity.
(§2) Also storage of phase 3 at 20° C. and 75% relative humidity caused complete conversion to the dihydrate within 3 weeks. The rate of conversion correlates with the relative humidity. When suspended in water, complete transformation into the dihydrate was observed almost immediately (<10 min).
Also storage of phase 4 at 20° C. and 75% relative humidity caused complete conversion to the dihydrate within 3 weeks. The rate of conversion apparently correlates with the relative humidity.

[10] = Suspension in water, transformation into the dihydrate
Experimental: as §2

Compound: O=c1[nH]ccc2cc(OC3CCNCC3)ccc12 [1,4-dioxane solvate, 6-(Piperidin-4-yloxy)-2H-isoquinolin-1-one hydrochloride×0.5 1,4-dioxane solvate]
- stability of the solvate (in words) ([1]; from TGA / temperature-resolved XRPD): relatively stable
- TGA weight loss ([1]; mainly in a temperature range from 80 to 120° C.): 16.6%

Compound: O=c1[nH]ccc2cc(OC3CCNCC3)ccc12 [amorphous material, 6-(Piperidin-4-yloxy)-2H-isoquinolin-1-one hydrochloride]
- hygroscopicity / water content as a function of relative humidity ([2]; hydrochloride): hygroscopic

Compound: O=c1[nH]ccc2cc(OC3CCNCC3)ccc12 [phase 1, 6-(Piperidin-4-yloxy)-2H-isoquinolin-1-one hydrochloride]
- time to complete conversion to the dihydrate on storage [9]: ≤ 3 weeks
- time until transformation into the dihydrate at 95% relative humidity ([3]; humidity-controlled XRPD): about 15 min
- relative thermodynamic stability among the phases [4]: only a metastable polymorph

Compound: O=c1[nH]ccc2cc(OC3CCNCC3)ccc12 [phase 3, 6-(Piperidin-4-yloxy)-2H-isoquinolin-1-one hydrochloride]
- time to complete conversion to the dihydrate on storage [9]: ≤ 3 weeks
- time until transformation into the dihydrate at 95% relative humidity ([3]; humidity-controlled XRPD): about 30 min
- relative thermodynamic stability among the phases [4]: thermodynamically most stable anhydrous form; also recorded: most stable anhydrous phase
- relative humidity above which phase changes into the dihydrate ([2]; cycle 1, sorption): above 80%
- time to complete transformation into the dihydrate when suspended in water [10]: < 10 min

Next, values leading:

- relative humidity at which the hydrate reversibly transforms into phase 2 ([3]; humidity chamber XRPD, r.h. cycled between 2% and 95%): 2 % r.h.
- time until the dihydrate changed to phase 2 at 2% r.h. ([3]; humidity-controlled XRPD, held at 2% r.h., hydrochloride dihydrate): about 30 min
- solid phase after maturation in 2-butanol ([4]; 2-butanol, 20° C., 35 days, after drying): Polymorph 4 was obtained
- solid phase after maturation in alcohols ([4]; methanol, ethanol, 1-propanol or 2-propanol, 20° C., 35 days): polymorph 3 was obtained
- solid phase after maturation in aqueous media ([4]; water, water/methanol 1:1, water/ethanol 1:1, 20° C., 35 days): remained as dihydrate
- hygroscopicity / water content as a function of relative humidity ([2]; hydrochloride dihydrate): maintains a quite constant water content
- relative humidity below which the dihydrate converts into phase 2 ([2]; cycle 1, desorption): below 10 % r.h.
- relative humidity below which weight loss starts ([2]; desorption cycle): below 20%
- TGA weight loss (water) on heating ([1]; heating in a dry environment, ends at about 110° C.): 10.8 mass-%
- temperature below which the form is stable ([5]; based on temperature-resolved XRPD findings): below 90 °C
- temperature at which transformation to phase 3 starts ([5]; heating, accompanied by loss of water): about 90 °C
- time proven stable under usual storage conditions (no detectable decomposition) [6]: more than two
- remaining water content down to which the hydrate crystal structure remains on drying [7]: about 3%
Compound: O=c1[nH]ccc2cc(OC3CCNCC3)ccc12 [dihydrate, 6-(Piperidin-4-yloxy)-2H-isoquinolin-1-one hydrochloride dihydrate]

- stability outside the mother liquor (in words) [8]: only moderately stable
Compound: O=c1[nH]ccc2cc(OC3CCNCC3)ccc12 [methyl acetate solvate, 6-(Piperidin-4-yloxy)-2H-isoquinolin-1-one hydrochloride]

- time to complete conversion to the dihydrate on storage [9]: ≤ 3 weeks
- time until transformation into the dihydrate at 95% relative humidity ([3]; humidity-controlled XRPD): about 15 min
- relative thermodynamic stability among the phases [4]: only a metastable one
Compound: O=c1[nH]ccc2cc(OC3CCNCC3)ccc12 [phase 4, 6-(Piperidin-4-yloxy)-2H-isoquinolin-1-one hydrochloride]
